# According to patent US6852673B2, “Herbicidal pyridine compounds” (BASF Aktiengesellschaft, priority 1998, dated 2005):
# What was measured:
# Format in all cases: in vivo
# Glycine max (GLXMA) [1] = experiment: Pre-emergence herbicidal evaluation, soyabeans
# From the text: (§1) The pre-emergence herbicidal activity of the compounds of the present invention is exemplified by the following test in which the seeds of a variety of monocotyledonous and dicotyledonous plants are seperately mixed with potting soil and planted on top of approximately one inch of soil in separate pots. After planting, the pots are sprayed with the selected aqueous acetone solution containing test compound in sufficient quantity to provide the equivalent of about 0.0125 to 0.4 kg per hectare of test compound per pot. The treated pots are then placed on greenhouse benches, watered and cared for in accordance with conventional greenhouse procedures. From 2 to 4 weeks after treatment, the tests are terminated and each pot is examined and rated according to the rating system set forth below.
# Hordeum vulgare (HORVW) [2] = experiment: Pre-emergence herbicidal evaluation, winter barley
# Procedure, shortened: (§2)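 Seeds mixed with potting soil were planted over about one inch of soil per pot, then sprayed with test compound in aqueous acetone at the equivalent of about 0.0125 to 0.4 kg per hectare. Pots were kept under standard greenhouse care and visually rated 2 to 4 weeks after treatment.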
# Oryza sativum (ORYSA) [3] = experiment: Pre-emergence herbicidal evaluation, rice
# From the text: as §1
# Zea mays (ZEAMX) [4] = experiment: Pre-emergence herbicidal evaluation, maize
# From the text: as §1
# [5] = test system: Abutilon theophrasti (ABUTH); experiment: Pre-emergence herbicidal evaluation, velvetleaf
# Procedure, shortened: as §2
# [6] = test system: Ambrosia artemiisifolia (AMBEL); experiment: Pre-emergence herbicidal evaluation, ragweed
# From the text: as §1
# [7] = test system: Ipomoea hederacea (IPOHE); experiment: Pre-emergence herbicidal evaluation, morning glory
# Procedure, shortened: as §2
# Lamium purpureum (LAMPU) [8] = experiment: Pre-emergence herbicidal evaluation, purple deadnettle
# Procedure, shortened: as §2
# [9] = test system: Matricaria inodora (MATIN); experiment: Pre-emergence herbicidal evaluation, mayweed
# Procedure, shortened: as §2
# Solanum nigrum (SOLNI) [10] = experiment: Pre-emergence herbicidal evaluation, black nightshade
# Procedure, shortened: as §2
# [11] = test system: Alopecurus myosuroides (ALOMY); experiment: Pre-emergence herbicidal evaluation, black grass
# Procedure, shortened: as §2
# [12] = test system: Echinochloa grus galli (ECHCG); experiment: Pre-emergence herbicidal evaluation, barnyard grass
# From the text: as §1
# Setaria viridis (SETVI) = experiment: Pre-emergence herbicidal evaluation, green foxtail
# Procedure, shortened: as §2
# Glycine max (GLXMA) [13] = experiment: Post-emergence herbicidal evaluation, soyabeans; conditions: rated 2 to 4 weeks after treatment
# Procedure: (§3) [table] [table] […] These acetone solutions are diluted with water and the resulting formulations applied at dosage levels equivalent of about 0.03 to 0.4 kg per hectare of test compound per pot. After spraying the plants are placed on greenhouse benches and are cared for in the usual manner, commensurate with conventional greenhouse practices. From 2 to 4 weeks after treatment, the seedling plants are examined and rated according to the rating system provided above. A rating 0 indicates growth as untreated control, a rating 9 indicates death.
# Hordeum vulgare (HORVW) [14] = experiment: Post-emergence herbicidal evaluation, winter barley; conditions: rated 2 to 4 weeks after treatment
# Procedure: as §3
# Oryza sativum (ORYSA) [15] = experiment: Post-emergence herbicidal evaluation, rice; conditions: rated 2 to 4 weeks after treatment
# Procedure: as §3
# [16] = test system: Triticum aestivum (TRZAW); experiment: Post-emergence herbicidal evaluation, winter wheat; conditions: rated 2 to 4 weeks after treatment
# Procedure: as §3
# Zea mays (ZEAMX) [17] = experiment: Post-emergence herbicidal evaluation, maize; conditions: rated 2 to 4 weeks after treatment
# Procedure: as §3
# [18] = test system: Abutilon theophrasti (ABUTH); experiment: Post-emergence herbicidal evaluation, velvetleaf; conditions: rated 2 to 4 weeks after treatment
# Procedure: as §3
# [19] = test system: Ipomoea hederacea (IPOHE); experiment: Post-emergence herbicidal evaluation, morning glory; conditions: rated 2 to 4 weeks after treatment
# Procedure: as §3
# Lamium purpureum (LAMPU) [20] = experiment: Post-emergence herbicidal evaluation, purple deadnettle; conditions: rated 2 to 4 weeks after treatment
# Procedure: as §3
# [21] = test system: Matricaria inodora (MATIN); experiment: Post-emergence herbicidal evaluation, mayweed; conditions: rated 2 to 4 weeks after treatment
# Procedure: as §3
# Solanum nigrum (SOLNI) [22] = experiment: Post-emergence herbicidal evaluation, black nightshade; conditions: rated 2 to 4 weeks after treatment
# Procedure: as §3
# Stellaria media (STEME) = experiment: Post-emergence herbicidal evaluation, chickweed; conditions: rated 2 to 4 weeks after treatment
# Procedure: as §3
# [23] = test system: Digitaria sanguinalis (DIGSA); experiment: Post-emergence herbicidal evaluation, large crabgrass; conditions: rated 2 to 4 weeks after treatment
# Procedure: as §3
structure (smiles),measurement,setting,value
Cc1cc(OCC(F)(F)C(F)F)nc(Oc2cc(C(F)(F)F)nn2C)c1 [Example 6],GLXMA rating,Glycine max (GLXMA) [1]; dose 0.013 kg/ha,0 (0 - No effect)
same,GLXMA rating,Glycine max (GLXMA) [1]; dose 0.025 kg/ha,2 (2 - Slight effect)
same,GLXMA rating,Glycine max (GLXMA) [1]; dose 0.1 kg/ha,3 (3 - Moderate effect)
same,GLXMA rating,Glycine max (GLXMA) [1]; dose 0.4 kg/ha,5 (5 - Definite injury)
same,HORVW rating,Hordeum vulgare (HORVW) [2]; dose 0.013 kg/ha,0 (0 - No effect)
same,HORVW rating,Hordeum vulgare (HORVW) [2]; dose 0.025 kg/ha,0 (0 - No effect)
same,HORVW rating,Hordeum vulgare (HORVW) [2]; dose 0.1 kg/ha,2 (2 - Slight effect)
same,HORVW rating,Hordeum vulgare (HORVW) [2]; dose 0.4 kg/ha,3 (3 - Moderate effect)
same,ORYSA rating,Oryza sativum (ORYSA) [3]; dose 0.013 kg/ha,0 (0 - No effect)
same,ORYSA rating,Oryza sativum (ORYSA) [3]; dose 0.025 kg/ha,0 (0 - No effect)
same,ORYSA rating,Oryza sativum (ORYSA) [3]; dose 0.1 kg/ha,1 (1 - Trace effect)
same,ORYSA rating,Oryza sativum (ORYSA) [3]; dose 0.4 kg/ha,2 (2 - Slight effect)
same,ZEAMX rating,Zea mays (ZEAMX) [4]; dose 0.013 kg/ha,0 (0 - No effect)
same,ZEAMX rating,Zea mays (ZEAMX) [4]; dose 0.025 kg/ha,1 (1 - Trace effect)
same,ZEAMX rating,Zea mays (ZEAMX) [4]; dose 0.1 kg/ha,3 (3 - Moderate effect)
same,ZEAMX rating,Zea mays (ZEAMX) [4]; dose 0.4 kg/ha,5 (5 - Definite injury)
same,ABUTH rating,[5]; dose 0.013 kg/ha,1 (1 - Trace effect)
same,ABUTH rating,[5]; dose 0.025 kg/ha,2 (2 - Slight effect)
same,ABUTH rating,[5]; dose 0.1 kg/ha,3 (3 - Moderate effect)
same,ABUTH rating,[5]; dose 0.4 kg/ha,9 (9 - Complete kill)
same,AMBEL rating,[6]; dose 0.013 kg/ha,1 (1 - Trace effect)
same,AMBEL rating,[6]; dose 0.025 kg/ha,1 (1 - Trace effect)
same,AMBEL rating,[6]; dose 0.1 kg/ha,9 (9 - Complete kill)
same,AMBEL rating,[6]; dose 0.4 kg/ha,9 (9 - Complete kill)
same,IPOHE rating,[7]; dose 0.013 kg/ha,0 (0 - No effect)
same,IPOHE rating,[7]; dose 0.025 kg/ha,1 (1 - Trace effect)
same,IPOHE rating,[7]; dose 0.1 kg/ha,2 (2 - Slight effect)
same,IPOHE rating,[7]; dose 0.4 kg/ha,8 (8 - Approaching complete kill)
same,LAMPU rating,Lamium purpureum (LAMPU) [8]; dose 0.013 kg/ha,7 (7 - Good herbicidal effect)
same,LAMPU rating,Lamium purpureum (LAMPU) [8]; dose 0.025 kg/ha,7 (7 - Good herbicidal effect)
same,LAMPU rating,Lamium purpureum (LAMPU) [8]; dose 0.1 kg/ha,9 (9 - Complete kill)
same,LAMPU rating,Lamium purpureum (LAMPU) [8]; dose 0.4 kg/ha,9 (9 - Complete kill)
same,MATIN rating,[9]; dose 0.1 kg/ha,9 (9 - Complete kill)
same,MATIN rating,[9]; dose 0.4 kg/ha,9 (9 - Complete kill)
same,SOLNI rating,Solanum nigrum (SOLNI) [10]; dose 0.013 kg/ha,4 (4 - Injury)
same,SOLNI rating,Solanum nigrum (SOLNI) [10]; dose 0.025 kg/ha,4 (4 - Injury)
same,SOLNI rating,Solanum nigrum (SOLNI) [10]; dose 0.1 kg/ha,8 (8 - Approaching complete kill)
same,SOLNI rating,Solanum nigrum (SOLNI) [10]; dose 0.4 kg/ha,9 (9 - Complete kill)
same,ALOMY rating,[11]; dose 0.013 kg/ha,1 (1 - Trace effect)
same,ALOMY rating,[11]; dose 0.025 kg/ha,3 (3 - Moderate effect)
same,ALOMY rating,[11]; dose 0.1 kg/ha,9 (9 - Complete kill)
same,ALOMY rating,[11]; dose 0.4 kg/ha,9 (9 - Complete kill)
same,ECHCG rating,[12]; dose 0.013 kg/ha,0 (0 - No effect)
same,ECHCG rating,[12]; dose 0.025 kg/ha,3 (3 - Moderate effect)
same,ECHCG rating,[12]; dose 0.1 kg/ha,8 (8 - Approaching complete kill)
same,ECHCG rating,[12]; dose 0.4 kg/ha,9 (9 - Complete kill)
same,SETVI rating,Setaria viridis (SETVI); dose 0.013 kg/ha,4 (4 - Injury)
same,SETVI rating,Setaria viridis (SETVI); dose 0.025 kg/ha,6 (6 - Herbicidal effect)
same,SETVI rating,Setaria viridis (SETVI); dose 0.1 kg/ha,8 (8 - Approaching complete kill)
same,SETVI rating,Setaria viridis (SETVI); dose 0.4 kg/ha,9 (9 - Complete kill)
same,GLXMA rating,Glycine max (GLXMA) [13]; dose 0.1 kg/ha,7 (7 - Good herbicidal effect)
same,GLXMA rating,Glycine max (GLXMA) [13]; dose 0.25 kg/ha,7 (7 - Good herbicidal effect)
same,GLXMA rating,Glycine max (GLXMA) [13]; dose 0.4 kg/ha,7 (7 - Good herbicidal effect)
same,HORVW rating,Hordeum vulgare (HORVW) [14]; dose 0.1 kg/ha,2 (2 - Slight effect)
same,HORVW rating,Hordeum vulgare (HORVW) [14]; dose 0.25 kg/ha,1 (1 - Trace effect)
same,HORVW rating,Hordeum vulgare (HORVW) [14]; dose 0.4 kg/ha,3 (3 - Moderate effect)
same,ORYSA rating,Oryza sativum (ORYSA) [15]; dose 0.1 kg/ha,1 (1 - Trace effect)
same,ORYSA rating,Oryza sativum (ORYSA) [15]; dose 0.25 kg/ha,1 (1 - Trace effect)
same,ORYSA rating,Oryza sativum (ORYSA) [15]; dose 0.4 kg/ha,1 (1 - Trace effect)
same,TRZAW rating,[16]; dose 0.1 kg/ha,2 (2 - Slight effect)
same,TRZAW rating,[16]; dose 0.25 kg/ha,1 (1 - Trace effect)
same,TRZAW rating,[16]; dose 0.4 kg/ha,3 (3 - Moderate effect)
same,ZEAMX rating,Zea mays (ZEAMX) [17]; dose 0.1 kg/ha,2 (2 - Slight effect)
same,ZEAMX rating,Zea mays (ZEAMX) [17]; dose 0.25 kg/ha,1 (1 - Trace effect)
same,ZEAMX rating,Zea mays (ZEAMX) [17]; dose 0.4 kg/ha,5 (5 - Definite injury)
same,ABUTH rating,[18]; dose 0.1 kg/ha,4 (4 - Injury)
same,ABUTH rating,[18]; dose 0.25 kg/ha,2 (2 - Slight effect)
same,ABUTH rating,[18]; dose 0.4 kg/ha,6 (6 - Herbicidal effect)
same,IPOHE rating,[19]; dose 0.1 kg/ha,8 (8 - Approaching complete kill)
same,IPOHE rating,[19]; dose 0.25 kg/ha,7 (7 - Good herbicidal effect)
same,IPOHE rating,[19]; dose 0.4 kg/ha,9 (9 - Complete kill)
same,LAMPU rating,Lamium purpureum (LAMPU) [20]; dose 0.1 kg/ha,6 (6 - Herbicidal effect)
same,LAMPU rating,Lamium purpureum (LAMPU) [20]; dose 0.25 kg/ha,4 (4 - Injury)
same,LAMPU rating,Lamium purpureum (LAMPU) [20]; dose 0.4 kg/ha,7 (7 - Good herbicidal effect)
same,MATIN rating,[21]; dose 0.1 kg/ha,6 (6 - Herbicidal effect)
same,MATIN rating,[21]; dose 0.25 kg/ha,4 (4 - Injury)
same,MATIN rating,[21]; dose 0.4 kg/ha,6 (6 - Herbicidal effect)
same,SOLNI rating,Solanum nigrum (SOLNI) [22]; dose 0.1 kg/ha,2 (2 - Slight effect)
same,SOLNI rating,Solanum nigrum (SOLNI) [22]; dose 0.25 kg/ha,1 (1 - Trace effect)
same,SOLNI rating,Solanum nigrum (SOLNI) [22]; dose 0.4 kg/ha,4 (4 - Injury)
same,STEME rating,Stellaria media (STEME); dose 0.1 kg/ha,2 (2 - Slight effect)
same,STEME rating,Stellaria media (STEME); dose 0.25 kg/ha,2 (2 - Slight effect)
same,STEME rating,Stellaria media (STEME); dose 0.4 kg/ha,3 (3 - Moderate effect)
same,DIGSA rating,[23]; dose 0.1 kg/ha,6 (6 - Herbicidal effect)
same,DIGSA rating,[23]; dose 0.25 kg/ha,4 (4 - Injury)
same,DIGSA rating,[23]; dose 0.4 kg/ha,7 (7 - Good herbicidal effect)
